According to patent US11207269B2, “Medical use of sPLA2 hydrolysable liposomes” (priority 2009, dated 2021):

Experiments:
[1] = comparison value for cisplatin, within 3 hours; cited from earlier work
[2] = tested on: human breast carcinoma cell line MT-3; assay: Efficacy in mice: MT-3 breast xenografts on nude mice; format: in vivo, NMRI nude female mice; details: 4 mg/kg/inj. weekly i.v.; treated tumors divided with control tumors; Cisplatin at day 31, LiPlaCis at day 26
Experimental: NMRI nude female mice (6-8 weeks) were inoculated subcutaneously into the left flank with 1*10^7 cells of the human breast carcinoma cell line MT-3. Only mice carrying exponentially growing tumors were selected for the study. […] Tumor growth was assessed three times a week by measuring two perpendicular diameters and tumor growth was normalized for differing starting sizes by calculating relative tumor volume. Body weight was measured three times a week. Blood samples were taken four days after the first injection to estimate white blood cells and thrombocytes by Coulter counter.

N.N.[Cl][Pt][Cl] [Cisplatin, cisplatin]
urinary excretion [1]: above 90%
Optimum T/C (%) [at day] [2]: 71%
